Experimental data from ChEMBL document CHEMBL1124237, “Linear free energy relationship studies of enzyme active site binding: thymidylate synthase” (J Med Chem, 1988).

How the values were obtained:
[1] = biological target: T1, Thymidylate synthase (Lactobacillus casei, UniProt P00469); assay: Inhibitory effect on Lactobacillus casei thymidylate synthase; set-up: species or system Lacticaseibacillus casei
T1 sequence (P00469 whole entry): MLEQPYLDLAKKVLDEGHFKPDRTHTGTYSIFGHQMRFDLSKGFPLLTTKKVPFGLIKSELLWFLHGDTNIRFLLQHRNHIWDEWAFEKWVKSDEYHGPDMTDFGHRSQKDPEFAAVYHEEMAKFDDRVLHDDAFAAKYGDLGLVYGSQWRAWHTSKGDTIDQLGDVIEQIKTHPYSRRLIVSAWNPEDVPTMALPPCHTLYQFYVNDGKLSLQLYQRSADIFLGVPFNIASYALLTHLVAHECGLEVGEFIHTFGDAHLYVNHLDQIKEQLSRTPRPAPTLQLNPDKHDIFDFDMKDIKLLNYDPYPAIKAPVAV

[2] = biological target: Thymidylate synthase (Mus musculus, UniProt P07607); assay: Inhibitory effect on murine leukemia (L1210) thymidylate synthase
Sequence of Thymidylate synthase (Mus musculus, UniProt P07607) (P07607 whole entry): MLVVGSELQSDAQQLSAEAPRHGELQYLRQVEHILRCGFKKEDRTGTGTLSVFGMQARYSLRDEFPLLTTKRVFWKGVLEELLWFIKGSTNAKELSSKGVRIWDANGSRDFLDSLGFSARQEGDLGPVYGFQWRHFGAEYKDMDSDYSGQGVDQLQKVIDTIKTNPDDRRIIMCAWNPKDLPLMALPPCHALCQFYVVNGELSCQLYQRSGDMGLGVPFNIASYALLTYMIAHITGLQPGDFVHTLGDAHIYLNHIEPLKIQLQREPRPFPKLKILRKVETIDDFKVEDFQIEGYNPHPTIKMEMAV

[3] = biological target: Thymidylate synthase (Homo sapiens, UniProt P04818); assay: Inhibitory effect on human lymphoblast (Molt/4F) thymidylate synthase
Sequence of Thymidylate synthase (Homo sapiens, UniProt P04818) (P04818 whole entry): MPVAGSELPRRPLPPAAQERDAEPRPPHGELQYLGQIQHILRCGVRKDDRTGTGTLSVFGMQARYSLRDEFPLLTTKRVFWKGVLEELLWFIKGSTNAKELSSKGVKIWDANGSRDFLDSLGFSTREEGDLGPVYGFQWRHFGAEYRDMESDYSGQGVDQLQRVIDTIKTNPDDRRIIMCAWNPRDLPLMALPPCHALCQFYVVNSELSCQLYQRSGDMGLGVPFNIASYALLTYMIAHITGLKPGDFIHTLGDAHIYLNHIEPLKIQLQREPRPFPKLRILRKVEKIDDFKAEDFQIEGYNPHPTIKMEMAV

SMILES	Ki [1] [µM]	Ki [2] [µM]	Ki [3] [µM]
O=c1[nH]c(=O)n([C@H]2C[C@H](O)[C@@H](COP(=O)(O)O)O2)cc1-c1ccc([N+](=O)[O-])cc1	6.42	48.3	–
Cc1ccc(-c2cn([C@H]3C[C@H](O)[C@@H](COP(=O)(O)O)O3)c(=O)[nH]c2=O)cc1	–	8.3	–
O=c1[nH]c(=O)n([C@H]2C[C@H](O)[C@@H](COP(=O)(O)O)O2)cc1-c1ccc(OCc2ccccc2)cc1	–	11.2	–
O=c1[nH]c(=O)n([C@H]2C[C@H](O)[C@@H](COP(=O)(O)O)O2)cc1-c1ccc(O)cc1	7.62	179	134
N#Cc1ccc(-c2cn([C@H]3C[C@H](O)[C@@H](COP(=O)(O)O)O3)c(=O)[nH]c2=O)cc1	8.75	97.8	114
O=c1[nH]c(=O)n([C@H]2C[C@H](O)[C@@H](COP(=O)(O)O)O2)cc1-c1ccc(C(F)(F)F)cc1	4.93	93.4	–
NC(=O)c1ccc(-c2cn([C@H]3C[C@H](O)[C@@H](COP(=O)(O)O)O3)c(=O)[nH]c2=O)cc1	5.67	113	119
COC(=O)c1ccc(-c2cn([C@H]3C[C@H](O)[C@@H](COP(=O)(O)O)O3)c(=O)[nH]c2=O)cc1	3.99	46.1	102

Other lines, results leading:

Ki [1] [µM]	Ki [2] [µM]	Ki [3] [µM]	SMILES
0.96	12.2	–	O=c1[nH]c(=O)n([C@H]2C[C@H](O)[C@@H](COP(=O)(O)O)O2)cc1-c1ccccc1
1.21	33	–	COc1ccc(-c2cn([C@H]3C[C@H](O)[C@@H](COP(=O)(O)O)O3)c(=O)[nH]c2=O)cc1
1.13	11.3	–	Nc1ccc(-c2cn([C@H]3C[C@H](O)[C@@H](COP(=O)(O)O)O3)c(=O)[nH]c2=O)cc1
1.41	48	–	CN(C)c1ccc(-c2cn([C@H]3C[C@H](O)[C@@H](COP(=O)(O)O)O3)c(=O)[nH]c2=O)cc1
1.81	29.2	–	O=c1[nH]c(=O)n([C@H]2C[C@H](O)[C@@H](COP(=O)(O)O)O2)cc1-c1ccc(Br)cc1
